Test results as given in patent publication US10196403B2, “Compounds and compositions and uses thereof” (Sunovion Pharmaceuticals Inc., priority 2016, dated 2019).

System: mice
Experiment: Neuropharmacological Assay (SmartCube)
Type: in vivo
Details: for minimal effective dose: Mus musculus, MED = dose having 50% or more total activity in SmartCube, read-out: POTENCY (minimal effective dose, MED); for AD: ADHD (SmartCube probability) / AG: analgesic (SmartCube probability) / AX: anxiolytic (SmartCube probability) / CE: cognitive enhancer (SmartCube probability) / DP: anti-depressant (SmartCube probability) / MS: mood stabilizer (SmartCube probability) / PS: anti-psychotic (SmartCube probability) / SD: sedative hypnotic (SmartCube probability) / UN: uncharacterized CNS activity (SmartCube probability): mice, i.p. 15 min before test, most efficacious dose(s) of 3 doses
Source text: Neuropharmacological Assay (SmartCube™)
Neurosci. 2011 Sep. 9; 5:103 (doi: 10.3389/fnins.2011.00103) (“Roberds”). As reported in Roberds, because psychiatric diseases generally result from disorders of cell-cell communication, circuitry, intact systems are useful in detecting improvement in disease-relevant endpoints. These endpoints are typically behavioral in nature, often requiring human observation and interpretation. To facilitate testing of multiple compounds for behavioral effects relevant to psychiatric disease, PsychoGenics, Inc. (Tarrytown, N.Y., “PGI”) developed SmartCube™, an automated system in which behaviors of compound-treated mice are captured by digital video and analyzed with computer algorithms. (D. Brunner et al., Drug Discov. Today 2002, 7:S107-S112). PGI Analytical Systems uses data from SmartCube™ to compare the behavioral signature of a test compound to a database of behavioral signatures obtained using a large set of diverse reference compounds. (The composition of the database as well as validation of the method is further described in Roberds). In this way, the neuropharmacological effects of a test compound can be predicted by similarity to major classes of compounds, such as antipsychotics, anxiolytics and antidepressants.
The SmartCube™ system produces an activity signature indicating the probability that the activity of the test compound at the administered dose matches a given class of neuropharmacological agents. (See, e.g., Roberds, FIGS. 2 and 3). The test compound is simultaneously compared against multiple classes of agents; thus, a separate probability is generated for each behavioral effect measured (e.g., anxiolytic activity, analgesic activity, etc.). In the table below, these probabilities are reported for each behavioral effect measured as follows:
where LOQ is the limit of quantification.
Provided compounds were dissolved in a mixture of Pharmasolve™ (N-methyl-2-pyrrolidone), polyethylene glycol and propylene glycol, and were injected i.p. 15 min. before the behavioral test. For each compound, injections were administered at 3 different doses. For each behavioral effect measured, results for the most efficacious dose(s) are presented. In the table below, DP: anti-depressant; AX: anxiolytic; SD: sedative hypnotic; PS: anti-psychotic; MS: mood stabilizer; AD: ADHD; CE: cognitive enhancer; AG: analgesic; UN: uncharacterized CNS activity.
The potency of many of the compounds in the table was also determined in the SmartCube™ system. Test compounds were routinely examined at dose levels of 0.3, 1, 3 10 and 30 mg per kg (mpk), although the dose range was increased or decreased if necessary to obtain a full dose response curve. A compound's minimal effective dose (MED) is a measure of the compounds potency. The MED was defined as the dose (in mpk) having 50% or more total activity in SmartCube.

SMILES | minimal effective dose | AD: ADHD (SmartCube probability) | AG: analgesic (SmartCube probability) | AX: anxiolytic (SmartCube probability) | CE: cognitive enhancer (SmartCube probability) | DP: anti-depressant (SmartCube probability) | MS: mood stabilizer (SmartCube probability) | PS: anti-psychotic (SmartCube probability) | SD: sedative hypnotic (SmartCube probability) | UN: uncharacterized CNS activity (SmartCube probability)
CNC[C@H]1OCCc2c1ccc1c2OCO1 [Example 3, (S)-1-(8,9-dihydro-6H-[1,3]dioxolo[4,5-f]isochromen-6-yl)-N-methylmethanamine] | 10 to 30 mg/kg | ++ (5%≤ ++ <25%) | ++ (5%≤ ++ <25%) | ++ (5%≤ ++ <25%) | + (LOQ≤ + <5%) | +++ (25%≤ +++ <50%) | + (LOQ≤ + <5%) | + (LOQ≤ + <5%) | + (LOQ≤ + <5%) | + (LOQ≤ + <5%)
CNC[C@@H]1OCCc2c1ccc1c2OCO1 [Example 4, (R)-1-(8,9-dihydro-6H-[1,3]dioxolo[4,5-f]isochromen-6-yl)-N-methylmethanamine] | 3 to 10 mg/kg | + (LOQ≤ + <5%) | ++ (5%≤ ++ <25%) | + (LOQ≤ + <5%) | + (LOQ≤ + <5%) | ++++ (50%≤ ++++) | + (LOQ≤ + <5%) | + (LOQ≤ + <5%) | + (LOQ≤ + <5%) | + (LOQ≤ + <5%)
NC[C@H]1OCCc2ccc3c(c21)OCO3 [Example 7, (S)-(6,9-dihydro-7H-[1,3]dioxolo[4,5-h]isochromen-9-yl)methanamine] | < 3 mg/kg | ++ (5%≤ ++ <25%) | +++ (25%≤ +++ <50%) | +++ (25%≤ +++ <50%) | ++ (5%≤ ++ <25%) | ++ (5%≤ ++ <25%) | ++ (5%≤ ++ <25%) | ++ (5%≤ ++ <25%) | + (LOQ≤ + <5%) | ++ (5%≤ ++ <25%)
NC[C@@H]1OCCc2ccc3c(c21)OCO3 [Example 8, (R)-(6,9-dihydro-7H-[1,3]dioxolo[4,5-h]isochromen-9-yl)methanamine] | 3 to 10 mg/kg | + (LOQ≤ + <5%) | ++ (5%≤ ++ <25%) | ++ (5%≤ ++ <25%) | ++ (5%≤ ++ <25%) | ++ (5%≤ ++ <25%) | + (LOQ≤ + <5%) | ++ (5%≤ ++ <25%) | + (LOQ≤ + <5%) | +++ (25%≤ +++ <50%)
CNC[C@H]1OCCc2ccc3c(c21)OCCO3 [Example 9, (S)-N-methyl-1-(2,3,7,10-tetrahydro-8H-[1,4]dioxino[2,3-h]isochromen-10-yl)methanamine] | 3 to 10 mg/kg | + (LOQ≤ + <5%) | ++ (5%≤ ++ <25%) | ++ (5%≤ ++ <25%) | + (LOQ≤ + <5%) | +++ (25%≤ +++ <50%) | ++ (5%≤ ++ <25%) | ++ (5%≤ ++ <25%) | ++ (5%≤ ++ <25%) | +++ (25%≤ +++ <50%)
CNC[C@@H]1OCCc2ccc3c(c21)OCCO3 [Example 10, (R)-N-methyl-1-(2,3,7,10-tetrahydro-8H-[1,4]dioxino[2,3-h]isochromen-10-yl)methanamine] | 10 to 30 mg/kg | + (LOQ≤ + <5%) | + (LOQ≤ + <5%) | ++ (5%≤ ++ <25%) | ++ (5%≤ ++ <25%) | ++ (5%≤ ++ <25%) | + (LOQ≤ + <5%) | ++ (5%≤ ++ <25%) | + (LOQ≤ + <5%) | +++ (25%≤ +++ <50%)
NC[C@H]1OCCc2c1ccc1c2OCO1 [Example 11, (S)-(8,9-dihydro-6H-[1,3]dioxolo[4,5-f]isochromen-6-yl)methanamine] | 3 to 10 mg/kg | ++ (5%≤ ++ <25%) | + (LOQ≤ + <5%) | + (LOQ≤ + <5%) | + (LOQ≤ + <5%) | ++++ (50%≤ ++++) | + (LOQ≤ + <5%) | + (LOQ≤ + <5%) | + (LOQ≤ + <5%) | + (LOQ≤ + <5%)
NC[C@@H]1OCCc2c1ccc1c2OCO1 [Example 12, (R)-(8,9-dihydro-6H-[1,3]dioxolo[4,5-f]isochromen-6-yl)methanamine] | 3 to 10 mg/kg | + (LOQ≤ + <5%) | ++ (5%≤ ++ <25%) | + (LOQ≤ + <5%) | + (LOQ≤ + <5%) | ++++ (50%≤ ++++) | + (LOQ≤ + <5%) | ++ (5%≤ ++ <25%) | ++ (5%≤ ++ <25%) | ++ (5%≤ ++ <25%)
CNC[C@H]1OCCc2ccc(F)cc21 [Example 13, (S)-1-(7-fluoroisochroman-1-yl)-N-methylmethanamine] | 10 to 30 mg/kg | + (LOQ≤ + <5%) | ++ (5%≤ ++ <25%) | ++ (5%≤ ++ <25%) | + (LOQ≤ + <5%) | ++ (5%≤ ++ <25%) | + (LOQ≤ + <5%) | + (LOQ≤ + <5%) | ++ (5%≤ ++ <25%) | +++ (25%≤ +++ <50%)
CNC[C@@H]1OCCc2ccc(F)cc21 [Example 15, (R)-1-(7-fluoroisochroman-1-yl)-N-methylmethanamine] | < 3 mg/kg | + (LOQ≤ + <5%) | ++ (5%≤ ++ <25%) | ++ (5%≤ ++ <25%) | ++ (5%≤ ++ <25%) | ++ (5%≤ ++ <25%) | ++ (5%≤ ++ <25%) | +++ (25%≤ +++ <50%) | ++ (5%≤ ++ <25%) | +++ (25%≤ +++ <50%)
